The values below are quoted from earlier work in patent US9708371B2, “Treatments for gastrointestinal disorders” (Ironwood Pharmaceuticals, Inc., priority 2011, dated 2017).

The conditions of the series: therapeutic dose levels.

Bridge positions count the residues as written; N and C are the ends. Peptide text beside a SMILES is read from it.

Regarding `C[C@@H]1NC(=O)[C@@H]2CCCN2C(=O)[C@H](CC(N)=O)NC(=O)[C@@H]2CSSC[C@H](N)C(=O)N[C@H]3CSSC[C@H](NC1=O)C(=O)N[C@@H]([C@@H](C)O)C(=O)NCC(=O)N[C@H](C(=O)N[C@@H](Cc1ccc(O)cc1)C(=O)O)CSSC[C@H](NC(=O)[C@H](Cc1ccc(O)cc1)NC(=O)[C@H](CCC(=O)O)NC3=O)C(=O)N2` [Linaclotide, Cys Cys Glu Tyr Cys Cys Asn Pro Ala Cys Thr Gly Cys Tyr] (H-CCEYCCNPACTGCY-OH; disulfide 1-6, 2-10, 5-13 (inferred); N-terminus and C-terminus assumed), the “levels seen systemically after oral administration” value was “no detectable levels”.
